Test results: publication PMC6104039 (Nature Communications, 2018)

How the values were obtained:
[1] = test system: permeabilised extensor digitorum longus muscle fibres; experiment: Respiratory complex activities in permeabilized extensor digitorum longus muscle fibres; type: in vivo, mice; conditions: three weeks, 5 mg/kg
Procedure: Permeabilized extensor digitorum longus (EDL) fibres were prepared and mitochondrial function analyzed according to published protocols with some modifications[71],[72]. Briefly, EDL muscles were dissected tendon-to-tendon into ice-cold isolation buffer A (10 mM Ca-EGTA buffer, 20 mM imidazole, 20 mM taurine, 49 mM K-MES, 3 mM K2HPO4, 9.5 mM MgCl2, 5.7 mM ATP, 15 mM phosphocreatine, 1 μM leupeptin, pH 7.1) and fibres were prepared immediately. Fibre bundles (~3 mg wet weight) were treated with saponin (50 μg/mL) for 20 min at 4 °C and subsequently washed in cold respiration medium B (0.5 mM EGTA, 3 mM MgCl2.6H2O, 20 mM taurine, 10 mM KH2PO4, 20 mM HEPES, 0.1% BSA, 15 mM potassium-lactobionate, 110 mM mannitol, 0.3 mM dithiothreitol, pH 7.1). […] Fibres were recovered after polarography and results were expressed as nmoles of O2/min/mg of tissue. Mitochondrial membrane integrity was verified by cytochrome c release test[71],[72].

[2] = molecular target: T1, CerS1 (Homo sapiens, UniProt P27544); experiment: CerS1 activity as a function of substrate concentration (Vmax, Khalf, mode of inhibition); type: biochemical; set-up: expressed in transfected cells; conditions: dihydrosphingosine and C18:0-CoA substrates
T1 sequence (P27544 1-350): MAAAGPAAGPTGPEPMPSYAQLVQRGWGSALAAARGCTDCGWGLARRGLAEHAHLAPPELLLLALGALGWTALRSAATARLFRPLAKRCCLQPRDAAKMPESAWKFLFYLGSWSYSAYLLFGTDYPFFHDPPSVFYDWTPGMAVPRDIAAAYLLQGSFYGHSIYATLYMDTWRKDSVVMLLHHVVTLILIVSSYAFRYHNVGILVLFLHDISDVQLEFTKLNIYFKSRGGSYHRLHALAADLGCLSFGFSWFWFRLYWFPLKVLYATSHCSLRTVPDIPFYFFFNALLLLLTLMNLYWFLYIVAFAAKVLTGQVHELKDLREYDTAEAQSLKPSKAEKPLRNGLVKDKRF

[3] = test system: soleus muscle strips; experiment: Palmitate oxidation in soleus muscle strips pre-treated in vitro; set-up: species or system mice; conditions: 1.5 h in vitro, 1 μM
Procedure: After a 30 min pre-incubation, muscles were transferred into vials containing 0.5 mCi/mL of [1-^14C]-palmitate in modified Krebs-Henseleit buffer for another 1 h. The reaction was stopped by removal of the muscles and addition of 1 M perchloric acid to the reaction mixture. ^14C-labelled CO2 was quantified as described above. The muscles were blotted dry and snap frozen in liquid nitrogen for subsequent lipid extraction and TLC. Muscles were homogenized using a Polytron (Kinematica, Littau-Lucerne, Switzerland) in 1.5 mL 2:1 chloroform-methanol (v/v). […] The upper aqueous phase was used to quantify ASM, and the lower organic phase was collected and dried under stream of N2, then reconstituted in hexane and spotted on a Silica Gel 60 F254 TLC plate. The TLC plate was developed in hexane/diethyl ether/glacial acetic acid (85:15:1), then air dried. TAG bands were visualised using iodine vapour staining, using an external standard to mark their position, then scraped into vials and quantified by liquid scintillation counting.

[4] = P053 accumulation in tissues, LC-MS/MS; type: in vivo, mice; conditions: 5 mg/kg daily for 2 weeks
[5] = test system: C57BL6/J mice; experiment: Hyperinsulinemic-euglycemic clamps; type: in vivo; conditions: 5 mg/kg, chow or HFD
Procedure: At 5 weeks of diet/drug treatment, mice underwent surgery to implant catheters into the left carotid artery and right jugular vein. Catheters were flushed every 1–2 days with heparinised saline to maintain patency. Approximately 6–8 days post surgery, and after a ~5 h fast, a hyperinsulinemic-euglycemic clamp was conducted. Mice were conscious, unrestrained and were not handled during the procedure to minimize stress. At −90 min, a primed (5 μCi) continuous infusion (0.05 μCi/min) of [3,^3H]-glucose (PerkinElmer) was commenced. Samples were collected at −30, −20, −10 and 0 min for basal glucose turnover (Rd) determination. […] Once blood glucose was stable, four sequential samples were taken to determine insulin-stimulated glucose turnover. A bolus of 2[^14C]deoxyglucose (10 μCi; PerkinElmer) was then administered and blood sampled at 2, 5, 10, 15, 20 and 30 min, prior to collection of muscles for determination of glucose uptake.

[6] = test system: C57BL6/J mice; experiment: Food intake; conditions: mouse, in vivo

mode of inhibition [2]: non-competitive inhibitor
levels of the compound in brain tissue compared to SkM [4]: three-fold lower
uptake in the liver [4]: substantial uptake
SMILES: C[C@@](N)(CO)CCc1ccc(OCc2ccc(Cl)c(Cl)c2)cc1 [P053, (S)-2-amino-4-(4-(3,4-dichlorobenzyloxy)phenyl)-2-methylbutan-1-ol]
complex II activity [1]: trend for an increase
respiratory activity with complex I and IV substrates [1]: significant increase
palmitate oxidation [3]: not affected
compound distribution in tissues [4]: higher in liver and kidney than in muscle and adipose tissue
glucose infusion rate, peripheral glucose disposal, insulin-stimulated glucose uptake in SkM [5]: no impact
food intake [6]: not due to any effect of P053 on food intake
